Data from patent publication US20220387412A1, “Novel Superebastine Against Therapy Resistant Prostate Cancer” (University of Kentucky Research Foundation, priority 2019, published 2022).
Entries after “also recorded” stand apart in the source; their conditions may differ.

Assays:
Type in all cases: cell-based
PC-3 cells = test: Resazurin cell viability assay, PC-3; details: for cell viability (resazurin): PC-3, 10 μM
Method: (§1) Mean+SD shown. (*) Asterisk indicates […] by the Student's t-test.
(§2) Cell viability was then measured by resazurin assays. […] On the other hand, Super-EBS (10 μM) was effective in 24 hours. […] Mean+SD are shown. P<0.01 by Student's t-test.

LNCaP cells = test: Western blot for γH2AX (Ser139), DNA double stranded breaks, LNCaP; details: 0.25 or 0.5 μM, 24 h
Method: (§3) FIGS. 7A-B show images illustrating that Super-EBS induces DNA damage in AR-positive prostate cancer cells. (A) C4-2 cells were treated with Super-EBS (0.5 or 1 μM) for 24 h in 10% FBS containing medium. […] Lysates were probed for YH2AX (Ser139 phosphorylation), a marker for DSB by Western blot analysis.
(§4) Super-EBS induces DNA damage in AR-positive prostate cancer cells. Lysates from AR-positive androgen-independent C4-2 cells (FIG. 7A) or androgen-dependent LNCaP cells (FIG. 7B) were treated with Super-EBS and subjected to Western blot analysis for γH2AX (Ser 139) positivity to detect DNA double stranded breaks (DSB). Super-EBS induced DSBs in both C4-2 and LNCaP cells (FIGS. 7A-B).

[1] = test system: CWR22Rv1 ENZ-sensitive cells; test: Resazurin cell viability assay, CWR22Rv1 ENZ-sensitive; details: CWR22Rv1 ENZ-sensitive, 24, 48 and 72 hours
Method: as §1, §2

[2] = test system: CWR22Rv1 ENZ-resistant cells; test: Resazurin cell viability assay, CWR22Rv1 ENZ-resistant; details: CWR22Rv1 ENZ-resistant, 24, 48 and 72 hours
Method: as §1, §2

prostate cancer cells = test: Growth inhibition / cell death of prostate cancer cell cultures; details: for cell death: within 24 h
Description: RAGE activation promotes proliferation, invasive bone homing, and metastasis of PCa cells.

[3] = test system: CWR22Rv1 ENZ-sensitive cells; test: ICC for active caspase 3 (apoptosis), CWR22Rv1 ENZ-sensitive; details: 0.1-5 μM, 24 hours
Method: (§5) FIGS. 5A-B show images and graphs illustrating that Super-EBS causes cell death by the activation of an apoptotic cascade. (A) AR-v7 expressing CwR22Rv1 and CwR22Rv1 Enz(R) cells were treated with Super-EBS (0.1-5 μM) in 10% FBS for 24 h and tested by ICC analysis for cleaved caspase 3 (green) and DAPI (blue). (B) Quantitative representation of ICC data. *P<0.05; **P<0.01 by Student's t test.
(§6) After determining that the cells were sensitive to Super-EBS, they were tested to determine whether Super-EBS inhibited cell viability by inducing apoptosis. CWR22Rv1 ENZ-sensitive and CWR22Rv1 ENZ-resistant cell lines were treated with vehicle, 0.1-, 0.5-, 1- and 5-μM of Super-EBS for 24 hours. The cells were then subjected to immunocytochemical (ICC) analysis for active caspase 3 (green fluorescence) to detect apoptotic cells, and 4, 6-diamidino-2-phenylindole (DAPI) staining (blue fluorescence) to reveal the cell nucleus. Cells were scored for apoptosis under a confocal microscope and percent apoptosis was calculated. […] Mean+SD are shown. P<0.01 by Student's t-test.
(§7) Super-EBS causes cell death by the activation of an apoptotic cascade. […] CwR22Rv1 Enz(R) cells were also tested with Super-EBS for 24 h and subjected to FACS analysis using Annexin V and propidium iodide (PI) staining.

[4] = test system: CWR22Rv1 ENZ-resistant cells; test: ICC for active caspase 3 (apoptosis), CWR22Rv1 ENZ-resistant; details: 0.1-5 μM, 24 hours
Method: as §5, §6, §7

CwR22Rv1 Enz(R) cells = test: Annexin V-PI staining and FACS analysis for apoptotic cells; details: 2 or 4 μM, 24 h
Method: CwR22Rv1 Enz(R) cells were treated with Super-EBS (2 or 4 μM) for 24 h in 10% FBS containing medium. Live cells were subjected to Annexin V-PI staining and FACS analysis for apoptotic cells. The percentage on the figure indicates the percentage of cells post treatment.
as §7

C4-2 cells = test: Western blot for γH2AX (Ser139), DNA double stranded breaks, C4-2; details: C4-2, 0.5 or 1 μM, 24 h
Method: as §3, §4

[5] = test system: C4-2, C4-2R, LNCaP and M49C cells; test: Resazurin cell viability assay, AR-positive cells and drug resistant counterparts; details: 24 h, 10% FBS
Method: FIGS. 4A-B show graphs illustrating viability of androgen independent and androgen dependent cells treated with Super-EBS. (A) Androgen independent AR-positive C4-2 and C4-2R were treated with Super-EBS and vehicle control for 24 h in 10% FBS. Cell viability was measured by Resazurin assay. (B) Androgen dependent AR-positive LNCaP and M49C were treated under same condition and cell viability by Resazurin assay. *P<0.05; ** P<0.01 by the Student's t test.
In particular, cell viability of the AR-positive prostate cancer cells and their drug resistant counterparts was lower for the cells treated with Super-EBS.

[6] = test system: CwR22Rv1 Par-4 knock-down cells; test: γH2AX ICC / Western blot in Par-4 wild type and knock-down cells; details: CwR22Rv1, 0.25 μM, 24 h
Method: FIGS. 8A-B show images illustrating that DNA damage induced by Super-EBS is mediated by Par-4. (A) CwR22Rv1 Par-4 wild type and knock-down cells were treated with Super-EBS (0.25 μM) for 24 h in medium containing 10% FBS, and then subjected to ICC for Par-4 (green) or YH2AX (Ser139) (red). (B) Western blot analysis for YH2AX, Par-4 and GAPDH was performed on lysates of Par-4 wild type (left) and knock-down (right) prostate cancer cells treated with Super-EBS (0.25 μM) for 24 h.
DNA damage induced by Super-EBS is mediated by Par-4.

CC(C)(C)c1ccc(C(=O)CCCN2CCC(OC(c3ccccc3)c3ccccc3)CC2)cc1 [EBS, 4-[4-(Diphenylmethoxy)-1-piperidinyl]-1-[4-(2-methyl-2-propanyl)phenyl]-1-butanone, reference compound]
cell viability (resazurin) (PC-3 cells; 72 hours): sensitive | DNA double stranded breaks (γH2AX Ser139) (LNCaP cells): but not EBS induced significant amount of DSBs

CC(C)(C)c1ccc(/C(CCCN2CCC(OC(c3ccccc3)c3ccccc3)CC2)=N\C(=N)N)cc1 [Super-EBS]
cell viability (resazurin) (PC-3 cells; 24 hours): effective | cell viability (resazurin), effective concentration (PC-3 cells; PC-3, 24, 48 and 72 hours): effective at nanomolar concentrations | cell viability (resazurin), effective concentration [1]: effective at nanomolar concentrations | cell viability (resazurin), effective concentration [2]: effective at nanomolar concentrations | concentration inducing apoptosis and growth inhibition (prostate cancer cells; ENZ-resistant as well as ENZ-sensitive prostate cancer cells): nanomolar concentrations | cell death (prostate cancer cells; ENZ-resistant prostate cancer cell cultures): 95-98% | cell death (prostate cancer cells; ENZ-sensitive prostate cancer cell cultures): 95-98% | potency in killing cells compared with EBS (prostate cancer cells; parental and ENZ-resistant prostate cancer cell lines): more potent than EBS | apoptosis (active caspase 3 ICC) relative to vehicle control [3]: significantly higher levels; also recorded: dose dependent increase in apoptotic cells | apoptosis (active caspase 3 ICC) relative to vehicle control [4]: significantly higher levels; also recorded: dose dependent increase in apoptotic cells | cells in the early and late stages of apoptosis (Annexin V/PI FACS) (CwR22Rv1 Enz(R) cells): dose dependent increase | DNA double stranded breaks (γH2AX Ser139) (C4-2 cells): induced DSBs | DNA double stranded breaks (γH2AX Ser139) (LNCaP cells): induced DSBs | cytotoxic effect compared with EBS ([5]; 10 μM): more pronounced than EBS | susceptibility of LNCaP and M49C versus C4-2 and C4-2R to cytotoxic action [5]: more susceptible | γH2AX positivity after Par-4 knock-down [6]: decrease in the YH2AX positivity
